Experimental data reported in ChEMBL document CHEMBL5154644, “Design, Synthesis, and Structure-Activity Relationship Optimization of Pyrazolopyrimidine Amide Inhibitors of Phosphoinositide 3-Kinase γ (PI3Kγ)” (J Med Chem, 2022).
Calls of active or inactive are those of the source. The rule behind the calls is not given here.

How the values were obtained:
[1] = Hepatic clearance in Sprague-Dawley rat by LC-MS/MS analysis; type: ADME; conditions: in vivo
[2] = target: T1, Phosphatidylinositol 4,5-bisphosphate 3-kinase catalytic subunit gamma isoform (Homo sapiens, UniProt P48736); assay: Inhibition of PI3Kgamma (unknown origin) in […] stimulated human THP-1 cells assessed as reduction in Akt phosphorylation level at Ser473 residue preincubated for 60 mins followed by rhMCP-1 stimulation and measured after 2 mins by AlphaLisa assay; type: cell-based
Target sequence in this assay (P48736 whole entry, canonical isoform): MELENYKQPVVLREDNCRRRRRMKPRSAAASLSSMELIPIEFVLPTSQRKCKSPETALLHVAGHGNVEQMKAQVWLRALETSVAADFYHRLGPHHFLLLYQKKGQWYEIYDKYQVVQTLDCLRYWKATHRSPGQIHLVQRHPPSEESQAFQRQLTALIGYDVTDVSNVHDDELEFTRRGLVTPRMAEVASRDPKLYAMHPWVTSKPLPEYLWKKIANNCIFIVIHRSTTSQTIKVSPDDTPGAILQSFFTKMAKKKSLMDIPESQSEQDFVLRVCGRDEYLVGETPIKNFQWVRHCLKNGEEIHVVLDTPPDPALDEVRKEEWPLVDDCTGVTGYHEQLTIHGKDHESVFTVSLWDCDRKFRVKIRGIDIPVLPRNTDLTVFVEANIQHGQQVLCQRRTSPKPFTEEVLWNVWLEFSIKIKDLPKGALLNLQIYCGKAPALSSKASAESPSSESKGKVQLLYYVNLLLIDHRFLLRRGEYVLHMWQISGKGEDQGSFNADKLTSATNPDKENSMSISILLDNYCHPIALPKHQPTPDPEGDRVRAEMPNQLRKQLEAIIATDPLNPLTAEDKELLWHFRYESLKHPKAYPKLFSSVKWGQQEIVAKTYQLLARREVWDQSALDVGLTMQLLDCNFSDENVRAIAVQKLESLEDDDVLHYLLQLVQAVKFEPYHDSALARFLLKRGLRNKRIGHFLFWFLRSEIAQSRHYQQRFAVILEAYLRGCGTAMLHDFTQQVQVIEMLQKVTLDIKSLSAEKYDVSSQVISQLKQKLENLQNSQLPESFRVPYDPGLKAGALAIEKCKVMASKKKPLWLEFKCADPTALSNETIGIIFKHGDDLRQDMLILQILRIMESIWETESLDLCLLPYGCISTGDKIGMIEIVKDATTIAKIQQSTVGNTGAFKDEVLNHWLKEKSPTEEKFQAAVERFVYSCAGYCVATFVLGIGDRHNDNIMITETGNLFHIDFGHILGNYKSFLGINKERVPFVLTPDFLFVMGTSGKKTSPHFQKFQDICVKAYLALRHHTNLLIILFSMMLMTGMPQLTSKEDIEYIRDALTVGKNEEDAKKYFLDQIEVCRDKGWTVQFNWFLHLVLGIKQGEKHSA

[3] = Metabolic stability in human hepatocytes assessed as intrinsic clearance per 10^6 cells at 0.5 uM by LC-MS/MS analysis; type: ADME, cell-based, Hepatocyte; conditions: read-out: CLH
[4] = Metabolic stability in rat hepatocyte assessed as intrinsic clearance per 10^8 cells at 0.5 uM by LC-MS/MS analysis; type: ADME, cell-based; conditions: hepatocytes
[5] = target: T2, Phosphatidylinositol 4,5-bisphosphate 3-kinase catalytic subunit delta isoform (Homo sapiens, UniProt O00329); assay: Inhibition of PI3Kdelta (unknown origin) using PIP2 as substrate preincubated for 1 hr followed by substrate addition and measured after 60 mins in presence of ATP by ADP-glo assay
T2 sequence (O00329 whole entry): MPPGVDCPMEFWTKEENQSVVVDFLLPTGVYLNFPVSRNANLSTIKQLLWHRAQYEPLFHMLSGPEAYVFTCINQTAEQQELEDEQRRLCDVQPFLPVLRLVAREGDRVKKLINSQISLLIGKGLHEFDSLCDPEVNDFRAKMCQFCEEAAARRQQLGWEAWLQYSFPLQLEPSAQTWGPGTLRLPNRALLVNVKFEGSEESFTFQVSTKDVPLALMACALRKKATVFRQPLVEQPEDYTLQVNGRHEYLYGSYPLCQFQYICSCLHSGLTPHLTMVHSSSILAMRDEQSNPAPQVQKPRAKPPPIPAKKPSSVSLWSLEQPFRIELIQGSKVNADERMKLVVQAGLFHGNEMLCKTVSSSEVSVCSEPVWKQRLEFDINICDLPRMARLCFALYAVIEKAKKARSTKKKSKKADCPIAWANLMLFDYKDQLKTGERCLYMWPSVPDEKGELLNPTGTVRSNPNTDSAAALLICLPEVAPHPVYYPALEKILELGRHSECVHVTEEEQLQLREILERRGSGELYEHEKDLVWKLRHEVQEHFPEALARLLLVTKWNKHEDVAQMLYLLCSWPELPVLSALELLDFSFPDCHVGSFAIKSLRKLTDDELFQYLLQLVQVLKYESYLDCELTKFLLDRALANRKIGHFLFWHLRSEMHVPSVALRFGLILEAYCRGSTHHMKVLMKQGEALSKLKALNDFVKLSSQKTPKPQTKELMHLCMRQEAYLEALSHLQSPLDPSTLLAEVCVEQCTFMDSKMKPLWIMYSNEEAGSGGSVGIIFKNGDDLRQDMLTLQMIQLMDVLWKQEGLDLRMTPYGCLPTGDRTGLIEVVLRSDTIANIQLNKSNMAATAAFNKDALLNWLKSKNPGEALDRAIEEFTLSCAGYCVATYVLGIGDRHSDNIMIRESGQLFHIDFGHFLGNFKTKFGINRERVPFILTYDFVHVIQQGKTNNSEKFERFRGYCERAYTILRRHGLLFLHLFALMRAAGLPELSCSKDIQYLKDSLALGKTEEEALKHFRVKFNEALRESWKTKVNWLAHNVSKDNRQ

Homo sapiens [6] = species: Homo sapiens; assay: Selectivity ratio of IC50 for inhibition of PI3Kalpha (unknown origin) to IC50 for inhibition of PI3Kgamma (unknown origin)
[7] = target: Phosphatidylinositol 4,5-bisphosphate 3-kinase catalytic subunit beta isoform (Homo sapiens, UniProt P42338); assay: Inhibition of PI3Kbeta (unknown origin) using PIP2 as substrate preincubated for 1 hr followed by substrate addition and measured after 60 mins in presence of ATP by ADP-glo assay
Phosphatidylinositol 4,5-bisphosphate 3-kinase catalytic subunit beta isoform, sequence (P42338 whole entry, canonical isoform): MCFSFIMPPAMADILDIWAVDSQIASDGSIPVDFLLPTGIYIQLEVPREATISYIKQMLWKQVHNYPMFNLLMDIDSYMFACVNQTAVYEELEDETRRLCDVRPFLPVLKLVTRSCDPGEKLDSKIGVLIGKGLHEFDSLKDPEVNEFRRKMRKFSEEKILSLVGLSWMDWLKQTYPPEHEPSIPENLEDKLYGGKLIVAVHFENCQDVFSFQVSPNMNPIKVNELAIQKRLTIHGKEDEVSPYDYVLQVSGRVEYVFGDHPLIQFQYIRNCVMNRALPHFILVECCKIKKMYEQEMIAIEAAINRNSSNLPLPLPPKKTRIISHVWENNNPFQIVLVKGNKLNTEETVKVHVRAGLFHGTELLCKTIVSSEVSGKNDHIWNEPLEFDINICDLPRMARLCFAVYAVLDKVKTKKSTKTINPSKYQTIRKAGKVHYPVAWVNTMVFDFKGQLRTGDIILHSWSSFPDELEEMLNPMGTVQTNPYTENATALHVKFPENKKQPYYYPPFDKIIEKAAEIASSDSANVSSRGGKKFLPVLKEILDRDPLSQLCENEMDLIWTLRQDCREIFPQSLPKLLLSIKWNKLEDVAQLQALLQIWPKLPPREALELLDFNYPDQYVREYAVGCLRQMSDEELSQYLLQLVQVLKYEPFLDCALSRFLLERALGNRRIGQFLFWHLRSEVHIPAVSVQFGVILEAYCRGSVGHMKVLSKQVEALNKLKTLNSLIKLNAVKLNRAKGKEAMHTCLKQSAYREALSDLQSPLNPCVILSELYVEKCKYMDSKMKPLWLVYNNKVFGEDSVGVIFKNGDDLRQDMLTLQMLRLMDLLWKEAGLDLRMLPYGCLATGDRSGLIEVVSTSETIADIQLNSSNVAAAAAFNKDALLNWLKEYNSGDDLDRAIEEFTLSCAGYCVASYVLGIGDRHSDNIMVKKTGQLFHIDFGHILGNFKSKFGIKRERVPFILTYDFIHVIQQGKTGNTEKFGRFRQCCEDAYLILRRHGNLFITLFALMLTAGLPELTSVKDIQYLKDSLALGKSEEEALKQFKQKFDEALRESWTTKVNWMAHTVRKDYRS

Homo sapiens [8] = species: Homo sapiens; assay: Selectivity ratio of IC50 for inhibition of PI3Kbeta (unknown origin) to IC50 for inhibition of PI3Kgamma (unknown origin)
hERG = hERG (Homo sapiens, UniProt Q12809); assay: Inhibition of human ERG at 10 uM by patch clamp assay relative to control; type: toxicity
hERG, sequence (Q12809 whole entry): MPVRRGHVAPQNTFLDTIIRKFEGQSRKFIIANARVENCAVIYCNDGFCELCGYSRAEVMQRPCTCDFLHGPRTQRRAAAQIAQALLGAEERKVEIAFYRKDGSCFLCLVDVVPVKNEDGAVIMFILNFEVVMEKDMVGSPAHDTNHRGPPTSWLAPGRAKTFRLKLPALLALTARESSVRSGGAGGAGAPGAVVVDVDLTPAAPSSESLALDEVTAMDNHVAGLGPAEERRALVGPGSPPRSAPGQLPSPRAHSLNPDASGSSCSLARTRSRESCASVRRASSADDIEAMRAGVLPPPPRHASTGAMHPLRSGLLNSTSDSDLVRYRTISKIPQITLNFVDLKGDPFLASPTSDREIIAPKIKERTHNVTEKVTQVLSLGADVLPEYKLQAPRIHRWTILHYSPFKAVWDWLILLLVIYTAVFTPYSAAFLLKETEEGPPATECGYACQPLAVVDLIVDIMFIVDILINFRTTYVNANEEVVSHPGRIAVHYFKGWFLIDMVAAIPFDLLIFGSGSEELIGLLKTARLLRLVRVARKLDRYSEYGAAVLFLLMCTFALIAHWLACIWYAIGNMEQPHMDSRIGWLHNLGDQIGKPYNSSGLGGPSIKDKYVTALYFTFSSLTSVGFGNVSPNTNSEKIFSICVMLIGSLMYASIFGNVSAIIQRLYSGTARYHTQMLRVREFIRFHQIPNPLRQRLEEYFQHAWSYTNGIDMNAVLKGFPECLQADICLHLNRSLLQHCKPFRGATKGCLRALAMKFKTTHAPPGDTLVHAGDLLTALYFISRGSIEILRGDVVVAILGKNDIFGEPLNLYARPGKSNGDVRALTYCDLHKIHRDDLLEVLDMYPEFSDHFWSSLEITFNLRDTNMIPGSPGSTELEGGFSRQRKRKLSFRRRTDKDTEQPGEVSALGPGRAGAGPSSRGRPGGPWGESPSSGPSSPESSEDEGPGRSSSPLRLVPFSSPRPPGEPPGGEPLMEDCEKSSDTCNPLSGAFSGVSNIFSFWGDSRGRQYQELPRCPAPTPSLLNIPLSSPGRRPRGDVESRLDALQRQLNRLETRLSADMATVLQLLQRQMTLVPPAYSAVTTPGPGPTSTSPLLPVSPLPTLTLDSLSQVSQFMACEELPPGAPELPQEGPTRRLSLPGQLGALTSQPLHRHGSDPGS

[9] = Plasma protein binding in Sprague-Dawley rat plasma at 1 mg/kg, iv measured up to 8 hrs by LC-MS/MS analysis; type: ADME, organism-based; conditions: read-out: PPB (converted)
[10] = Plasma protein binding in Beagle dog at 1 mg/kg, iv; type: ADME, organism-based, Canis lupus familiaris; conditions: read-out: PPB (converted)
[11] = Clearance in Sprague-Dawley rat at 1 mg/kg, iv measured up to 8 hrs by LC-MS/MS analysis; type: ADME, organism-based; conditions: in vivo
[12] = Volume of distribution at steady state in Sprague-Dawley rat at 1 mg/kg, iv measured up to 8 hrs by LC-MS/MS analysis; type: ADME, organism-based; conditions: in vivo
[13] = Volume of distribution at steady state in cynomolgus monkey at 1 mg/kg, iv; type: ADME, organism-based, Macaca fascicularis; conditions: in vivo
[14] = Half life in cynomolgus monkey at 1 mg/kg, iv; type: ADME, organism-based, Macaca fascicularis; conditions: in vivo
[15] = MRT (infinity) in Beagle dog at 1 mg/kg, iv; type: ADME, organism-based, Canis lupus familiaris; conditions: in vivo
[16] = MRT (infinity) in cynomolgus monkey at 1 mg/kg, iv; type: ADME, organism-based, Macaca fascicularis; conditions: in vivo
[17] = AUC(0 to infinity) in C57BL/6 mouse at 0.5 mg/kg, iv; type: ADME, organism-based; parameters: time infinity, dose 0.5 mg/kg, route iv; conditions: in vivo
[18] = AUC(0 to infinity) in Sprague-Dawley rat at 1 mg/kg, iv measured up to 8 hrs by LC-MS/MS analysis; type: ADME, organism-based; parameters: dose 1 mg/kg, time < 8 hrs, route iv; conditions: in vivo
[19] = AUC(0 to infinity) in Beagle dog at 1 mg/kg, iv; type: ADME, organism-based, Canis lupus familiaris; parameters: time infinity, dose 1 mg/kg, route iv; conditions: in vivo
[20] = AUC(0 to infinity) in cynomolgus monkey at 1 mg/kg, iv; type: ADME, organism-based, Macaca fascicularis; parameters: time infinity, dose 1 mg/kg, route iv; conditions: in vivo
[21] = Cmax in Sprague-Dawley rat at 10 mg/kg, po measured up to 24 hrs by LC-MS/MS analysis analysis; type: ADME, organism-based; parameters: dose 10 mg/kg, time < 24 hrs, route po; conditions: in vivo
[22] = AUC(0 to infinity) in Sprague-Dawley rat at 10 mg/kg, po measured up to 24 hrs by LC-MS/MS analysis analysis; type: ADME, organism-based; parameters: dose 10 mg/kg, time < 24 hrs, route po; conditions: in vivo
[23] = Oral bioavailability in Sprague-Dawley rat at 10 mg/kg measured up to 24 hrs by LC-MS/MS analysis; type: ADME, organism-based; conditions: in vivo
[24] = target: T1, Phosphatidylinositol 4,5-bisphosphate 3-kinase catalytic subunit gamma isoform; assay: Inhibition of P13Kgamma in LPS and IFNgamma stimulated human M1 macrophage assessed as increase in IL12B expression at 1 uM pretreated for 1 hr followed by LPS and IFNgamma stimulation by qRT-PCR analysis; type: cell-based
Target sequence in this assay (P48736 whole entry, looked up, canonical isoform): as the sequence (P48736 whole entry, canonical isoform) above

[25] = target: T1, Phosphatidylinositol 4,5-bisphosphate 3-kinase catalytic subunit gamma isoform; assay: Inhibition of P13Kgamma in LPS and IFNgamma stimulated human M1 macrophage assessed as increase in TNFA expression at 1 uM pretreated for 1 hr followed by LPS and IFNgamma stimulation by qRT-PCR analysis; type: cell-based
Target sequence in this assay (P48736 whole entry, looked up, canonical isoform): as the sequence (P48736 whole entry, canonical isoform) above

[26] = Metabolic stability in human hepatocytes assessed as parent compound remaining at 0.5 uM measured after 2 hrs by LC-MS/MS analysis; type: ADME, cell-based, Hepatocyte
[27] = Apparent permeability of the compound across apical to basolateral side in human Caco-2 cells; type: ADME, cell-based
CYP3A4 = CYP3A4 (Homo sapiens, UniProt P08684); assay: in vitro; conditions: human liver microsomes, probe midazolam
CYP3A4, sequence (P08684 whole entry): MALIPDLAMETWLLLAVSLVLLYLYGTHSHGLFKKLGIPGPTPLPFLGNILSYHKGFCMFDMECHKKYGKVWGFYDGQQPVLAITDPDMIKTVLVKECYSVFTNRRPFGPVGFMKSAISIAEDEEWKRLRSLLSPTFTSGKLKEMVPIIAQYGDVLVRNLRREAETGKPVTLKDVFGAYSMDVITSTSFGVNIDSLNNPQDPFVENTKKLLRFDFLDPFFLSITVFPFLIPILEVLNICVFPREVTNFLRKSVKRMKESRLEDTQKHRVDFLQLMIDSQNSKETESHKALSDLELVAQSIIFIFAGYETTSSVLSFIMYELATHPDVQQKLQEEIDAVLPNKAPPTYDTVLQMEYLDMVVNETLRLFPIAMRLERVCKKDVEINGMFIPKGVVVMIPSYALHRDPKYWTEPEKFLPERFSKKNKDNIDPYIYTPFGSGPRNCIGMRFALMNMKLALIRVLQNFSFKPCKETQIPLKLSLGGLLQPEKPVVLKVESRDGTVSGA
Description: Time dependent inhibition of CYP3A4 in human liver microsomes at 10 uM using midazolam as substrate preincubated for 30 mins in presence of NADPH by LC/MS/MS analysis relative to control

C[C@@H](C1CC1)N1Cc2cc(-c3ccn4nc(N)c(C(=O)N[C@H]5CC[C@@](C)(O)CC5)c4n3)cc(OC(F)(F)F)c2C1=O
CLH [1]: 1.8 L/h/kg
IC50 [2]: 38 nM
hepatocyte CLint at 0.5 µM [3]: < 1.2 µL/min/1e6 cells
hepatocyte intrinsic clearance [4]: 6.07 µL/min
IC50 [5]: 1650 nM
Ratio IC50 (Homo sapiens [6]): 946
IC50 [7]: 29.3 µM
Ratio IC50 (Homo sapiens [8]): 7040
inhibition at 10 µM (hERG): 5%
fraction unbound at 8 h [9]: 0.023
fraction unbound [10]: 0.048
clearance [11]: 20.8 mL/min/kg
Vdss [12]: 2.91 L/kg
Vdss [13]: 3.77 L/kg
half-life [14]: 219 min
MRT inf [15]: 3.85 h
MRT inf [16]: 3.58 h
AUC(0-inf) [17]: 488 ng·h/mL
AUC(0-inf) [18]: 797 ng·h/mL
AUC(0-inf) [19]: 1240 ng·h/mL
AUC(0-inf) [20]: 949 ng·h/mL
Cmax [21]: 25 ng/mL
AUC(0-inf) [22]: 249 ng·h/mL
bioavailability [23]: 4%
inhibition [24]: Active
inhibition [25]: Active
Stability [26]: 58%
Papp A→B [27]: 4.7 ×10⁻⁶ cm/s
inhibition at 30 min, 10 µM (CYP3A4): 10%

C[C@@H](C1CC1)N1Cc2cc(-c3ccn4nc(N)c(C(=O)N[C@H]5CC[C@@](C)(O)CC5)c4n3)cc(OC(F)F)c2C1=O
CLH [1]: 1.5 L/h/kg
IC50 [2]: 34 nM
hepatocyte CLint at 0.5 µM [3]: < 1.2 µL/min/1e6 cells
hepatocyte intrinsic clearance [4]: 2.62 µL/min
IC50 [5]: 1080 nM
Ratio IC50 (Homo sapiens [6]): 657
IC50 [7]: 9.21 µM
Ratio IC50 (Homo sapiens [8]): 3680
inhibition at 10 µM (hERG): 17%
fraction unbound at 8 h [9]: 0.021
fraction unbound [10]: 0.034
clearance [11]: 27.5 mL/min/kg
Vdss [12]: 3.03 L/kg
Vdss [13]: 3.69 L/kg
half-life [14]: 191 min
MRT inf [15]: 5.92 h
MRT inf [16]: 3.41 h
AUC(0-inf) [17]: 565 ng·h/mL
AUC(0-inf) [18]: 630 ng·h/mL
AUC(0-inf) [19]: 1800 ng·h/mL
AUC(0-inf) [20]: 925 ng·h/mL
Cmax [21]: 703 ng/mL
AUC(0-inf) [22]: 8160 ng·h/mL
bioavailability [23]: 102%
inhibition [24]: Active
inhibition [25]: Active
Stability [26]: 94%
Papp A→B [27]: 16.8 ×10⁻⁶ cm/s
inhibition at 30 min, 10 µM (CYP3A4): 10%
